From US9585878B2, “Treatment of BDNF-related disorders using laquinimod” (TEVA PHARMACEUTICAL INDUSTRIES, LTD., priority 2009, dated 2017)
“Also recorded” adds a separate entry of the source.

What was measured:
Balb/c mice [1] = assay: Forced Swim Test (FST); assay type: in vivo
Balb/c mice [2] = assay: Open Field Test (motility and anxiety parameters); assay type: in vivo
Description: The Open Field Test—Exploratory locomotor activity used in Examples 3.1 and 3.2 described below is one of the most popular in evaluation of animals' behavior. It tests both motility parameters and anxiety (Prut et al). An individual mouse is placed in a novel plexiglass arena of 50×50 cm the floor of which is divided into 3 digital zones: the outer peripheral zone 1, the medial zone 2 and the most central zone 3. The animal behavior in the open field is recorded by videotaping for 20 min and is analyzed subsequently digitally using Noldus software for animal behavior. The measurements include general motility (distance moved, velocity and strong mobility) and anxiety parameters (including frequency of visits to the central area, time spent in the inner field, and number of rearing events in the center). The more the animal stays and performs in the center, the less anxious it is.
(§1) Balb/c male mice were divided to 6 groups (5/group) and administered laquinimod (1, 5, 10 and 25 mg/kg p.o. in the form of laquinimod sodium solution via gavage), fluoxetine (positive control 10 mg/kg po) or vehicle daily for 3 days. On the third day, 90 min following administration, mice were exposed to the open field for 20 min. Behavior was video recorded and analyzed using Ethovision software (Noldus Holland).
as §1, with “(0.5, 1, 5” for “(1, 5, 10”, “field test” for “field”, “minutes.” for “min.”

[3] = tested on: brain-derived neurotrophic factor (BDNF); assay: Clinical trial in RRMS patients: BDNF concentration in serum by sandwich ELISA; assay type: in vivo, human; conditions: for Mean BDNF concentration in serum: RRMS patients
Description: A study was initiated in relapsing remitting multiple sclerosis (RRMS) patients using laquinimod, 0.6 mg daily, in the form of the sodium salt, in an oral, once-daily tablet formulation. The study was a multinational, multicenter, randomized, double-blind, parallel-group, placebo controlled study assessing the efficacy, tolerability and safety of two doses of laquinimod in subjects with RRMS. Eligible subjects were randomized into the following three groups:
1. 0.6 mg of laquinimod per os (p.o.) once daily;
2. 0.3 mg of laquinimod per os (p.o.) once daily; and
3. Matching placebo, per os (p.o.) once daily. Subjects must meet the following inclusion criteria to be included in the study:
• 1. a confirmed MS diagnosis as defined by the McDonald criteria; • 2. a RRMS disease course; • 3. at least one documented relapse n the 12 months prior to screening; • 4. at least one Gadolinium-enhanced lesion on their screening MRI scan; • 5. ambulatory with a Kurtzke EDSS score of 1.0-5.0 (Converted); • 6. between 18-50 years of age inclusive; • 7. relapse-free and off corticosteroids or ACTH for at least 30 days prior to the MRI scan at screening; • 8. relapse-free and off corticosteroids between screening and randomization; • 9. women of child-bearing potential practiced a reliable method of birth control; • 10. willing and able to comply with the protocol requirements for the duration of the study; and • 11. able to give signed, written and informed consent prior to entering the study. Subjects meeting any one of the following exclusion criteria were excluded from the study: • 1. suffered from any form of progressive MS; • 2. use of immunosuppressive or cytotoxic treatments within 6 months prior to the screening visit (including azathioprine, cyclophosphamide and methotrexate); • 3. use of experimental drugs, and/or participation in drug clinical studies within the 6 months prior to screening; • 4. previous treatment with immunomodulators (including IFN-β1a and 1b, glatiramer acetate, laquinimod and IVIG) within the 2 months prior to screening; • 5. use of potent inhibitors of CYP3A4, for example, oral ketoconazole and erythromycin within 2 weeks prior to baseline visit; • 6. previous use of amiodarone; • 7. use of fluoxetine one month prior to baseline visit; • 8. use of substrates of CYP1A2 such as theophylline and warfarin within 2 weeks prior to screening; • 9. previous treatment with cladribine within the last 2 years prior to screening visit; • 10. subjects for whom potential immunosuppression would be contraindicated, for example, Hepatitis B/C or HIV. • 11. previous total body irradiation or total lymphoid irradiation; • 12. chronic corticosteroid treatment (30 or more consecutive days) within the 2 months prior to screening; • 13. pregnancy or breastfeeding; • 14. subjects with a clinically significant or unstable medical or surgical condition that would preclude safe and complete study participation as determined by medical history, physical exams, ECG, abnormal laboratory tests and chest X-ray. • 15. inability to give informed consent, or to complete the study, or if the subject is considered by the investigator to be, for any reason, an unsuitable candidate for the study; • 16. a known history of sensitivity to Gd; or • 17. inability to successfully undergo MRI scanning.
The study duration was 40 weeks and consisted of 2 periods: 4 weeks of screening period (week −4 [ screening] to week 0 [ baseline]) and 36 weeks of double blind treatment (week 0 [ baseline] to week 36 [ termination]).
Subjects were evaluated at study sites at weeks −4, 0, 4, 8, 12, 16, 20, 24, 28, 32 and 36. Samples for inflammatory markers were collected at all visits between 0 and 36 weeks.
BDNF concentration in serum was measured in patients in the placebo group (102 patients were in the group) and in the 0.6 mg laquinimod group (106 patients were in the group) at week 0 (V0), week 12 (v3) and week 36 (V9). […]

Balb/c mice [4] = assay: Elevated Plus Maze (EPM); assay type: in vivo
From the text: The EPM model used in Examples 4.1 and 4.2 described below utilizes the natural fear of rodents to avoid open and elevated places. The apparatus consists of a plus-maze with two enclosed and two opposite open arms, elevated above the floor. […] This is one of the most widely used models to study effects of anxiety-like behavior. The maze consisted of two opposing open arms (40×10 cm) and two opposing closed arms (40×10 cm, with 40 cm walls) on a platform 50 cm above the ground. Mice were placed in the center square (10×10 cm) facing an open arm and videotaped during a 5 min exploration. Arm entries and duration were scored when all four paws enter the arm. Balb/c male mice were divided to 6 groups (5/group) and administered laquinimod (0.5, 1, 5 and 25 mg/kg p.o. in the form of laquinimod sodium solution via gavage), fluoxetine (positive control 10 mg/kg po) or vehicle daily for 3 days. On the third day, 90 min following administration, mice were exposed to the EPM for 5 minutes. Mice were placed in the center square (10×10 cm) facing an open arm and videotaped during a 5 minute exploration. Arm entries and duration was scored when all four paws enter the arm. Behavior was video recorded and analyzed using Ethovision software (Noldus Holland). Balb/c male mice were divided to 6 groups (5/group) and administered laquinimod (0.5, 1, 5 and 25 mg/kg p.o. in the form of laquinimod sodium solution via gavage), fluoxetine (positive control 10 mg/kg po) or vehicle daily for 3 days. On the third day, 90 min following administration, mice were exposed to the EPM for 5 min. Behavior was video recorded and open arms parameters were analyzed using Ethovision software (Noldus Holland).

CNCCC(Oc1ccc(C(F)(F)F)cc1)c1ccccc1 (stereo not drawn) [fluoxetine, reference compound]
Antidepressant activity in FST (Balb/c mice [1]; Example 2.1, positive control 10 mg/kg p.o. daily for 3 days): did not show significant effect
Antidepressant activity in FST (Balb/c mice [1]; Example 2.2, positive control 10 mg/kg p.o. daily for 3 days): trend to the same activity
Anxiety parameters (zone 2) in open field (Balb/c mice [2]; Example 3.1, 10 mg/kg p.o. daily for 3 days): tended to perform more in the center
Motility parameters in open field (Balb/c mice [2]; Example 3.1, 10 mg/kg p.o. daily for 3 days, 20 min): did not modify significantly the motility parameters
Anxiety parameters (zones 2+3) in open field (Balb/c mice [2]; Example 3.2, 10 mg/kg p.o. daily for 3 days): significant anxiolytic effect
Anxiety parameters (zones 2+3) in open field (Balb/c mice [2]; Example 3.2, 10 mg/kg p.o. daily for 3 days, listed as Fluoxetine): performed significantly more in the center

CCN(C(=O)c1c(O)c2c(Cl)cccc2n(C)c1=O)c1ccccc1 [Laquinimod, N-ethyl-N-phenyl-1,2-dihydro-4-hydroxy-5-chloro-1-methyl-2-oxoquinoline-3-carboxamide]
Antidepressant activity (increased mobility, reduced immobility) in FST (Balb/c mice [1]; Example 2.1, 1 mg/kg p.o. daily for 3 days, 90 min after last dose): significant antidepressant activity
Most active dose in FST (Balb/c mice [1]; Example 2.1, doses tested 1-25 mg/kg/d x3d p.o.): 1 mg/kg
Antidepressant activity (increased mobility, reduced immobility) in FST (Balb/c mice [1]; Example 2.1, higher doses (25 mg/kg) p.o. daily for 3 days): trend to significance
Antidepressant activity (increased mobility, reduced immobility) in FST (Balb/c mice [1]; Example 2.2, 5 and 25 mg/kg p.o. daily for 3 days): significant antidepressant activity
Difference in BDNF versus placebo group ([3]; 0.6 mg/day, V9 (week 36)): statistically significant
Elevation of BDNF versus placebo group ([3]; 0.6 mg/day, starting from V3 (week 12), Confidence Level of 95%): statistically significant elevation of BDNF
Mean BDNF concentration in serum ([3]; 0.6 mg laquinimod p.o. once daily group, baseline week 0 (V0)): 13892.7 pg/mL
Mean BDNF concentration in serum ([3]; 0.6 mg laquinimod p.o. once daily, week 12 (V3)): 15519.6 pg/mL
Mean BDNF concentration in serum ([3]; 0.6 mg laquinimod p.o. once daily, week 36 (V9)): 15335.8 pg/mL
Difference in mean BDNF, Laquinimod 0.6 mg-Placebo (t Test, unequal variances) ([3]; baseline week 0 (V0)): -218.0 pg/mL
Difference in mean BDNF, Laquinimod 0.6 mg-Placebo (t Test, unequal variances) ([3]; week 12 (V3)): 2445.70 pg/mL
Difference in mean BDNF, Laquinimod 0.6 mg-Placebo (t Test, unequal variances) ([3]; week 36 (V9)): 2552.21 pg/mL
Anxiolytic activity in EPM (Balb/c mice [4]; Example 4.1, 0.5, 1, 5 and 25 mg/kg p.o. daily for 3 days): anxiolytic activity in a dose dependent manner
Anxiolytic effect in EPM (activity on the open arm) (Balb/c mice [4]; Example 4.1, 5 and 25 mg/kg/d x3d p.o., 5 min): significant anxiolytic effect
Dose of maximal effect in EPM (Balb/c mice [4]; Example 4.1, p.o.): 25 mg/kg
Anxiolytic activity in EPM (Balb/c mice [4]; Example 4.2, 0.5, 1, 5 and 25 mg/kg p.o. daily for 3 days): anxiolytic activity in a dose dependent manner
Anxiolytic effect in EPM (open arm parameters) (Balb/c mice [4]; Example 4.2, 5-25 mg/kg/d x3d p.o., 5 min): significant anxiolytic effect
Dose of maximal effect in EPM (Balb/c mice [4]; Example 4.2, p.o.): 5 to 25 mg/kg
Most potent dose, anxiety parameters (zones 2 and 3) in open field (Balb/c mice [2]; Example 3.1): 1 mg/kg
Motility parameters in open field (Balb/c mice [2]; Example 3.1, 1-25 mg/kg/d x3d p.o., 20 min): did not modify significantly the motility parameters; also recorded: did not modify general mobility parameters
Anxiety parameters (zone 2) in open field (Balb/c mice [2]; Example 3.1, 1-25 mg/kg/d x3d p.o., frequency, time spent, distance moved, rearings): tendency toward anxiolytic effect
Anxiety parameters (zone 2) in open field (Balb/c mice [2]; Example 3.1, 1-25 mg/kg/d x3d p.o., frequency, time spent, distance moved, rearings, listed as laquinimod): tended to perform more in the center
Anxiety parameters (zones 2 and 3) in open field (Balb/c mice [2]; Example 3.1, 1-25 mg/kg/d x3d p.o., time spent, distance moved, rearings): tendency toward anxiolytic effect
Anxiety parameters (zones 2 and 3) in open field (Balb/c mice [2]; Example 3.1, 1-25 mg/kg/d x3d p.o., time spent, distance moved, rearings, listed as laquinimod): tended to perform more in the center
Most potent dose, anxiety parameters in open field (Balb/c mice [2]; Example 3.2): 5 mg/kg
Motility parameters in open field (Balb/c mice [2]; Example 3.2, 0.5-5 mg/kg (0.5-25 mg/kg/d x3d p.o. tested)): slight increase in motility
Anxiety parameters (zones 2+3) in open field (Balb/c mice [2]; Example 3.2, 0.5-5 mg/kg p.o. daily for 3 days, frequency, time spent, rearings): performed significantly more in the center; also recorded: significant anxiolytic effect
